Reference: PMC11077815, “Synthesis and antitumor activity of dolutegravir derivatives bearing 1,2,3-triazole moieties” (BMC Chemistry, 2024)

Experiments:
H460 = assay: CCK8 cell viability assay, H460; assay type: cell-based, Human; settings: for IC50: H460, 48 h, CCK8, mean ± SE
Experimental: (§1) At first, CCK8 assay was carried out to evaluate the anti-proliferative activity of dolutegravir-1,2,3-triazole derivatives against different cancer cell lines. The results of cell viability of three lung cancer cell lines A549, PC-9 and H460 in the presence of compounds 9 and 10 are summarized in Table 2. Cells were treated with different compounds at the concentration of 20 µM for 48 h. […] Human lung cancer cell lines A549, PC-9 and H460 were all obtained from ATCC. Cells were cultured in DMEM or RPMI 1640 medium containing 10% FBS and 1% penicillin/streptomycin at 37 °C with a 5% CO2-humidified atmosphere. CCK8 assay was used to measure cell viability. Cells with a density of 1 × 10^4 cells/well were seeded on the 96-well plates. After adhesion, cells were treated with different diluted compounds or vehicle control DMSO and continue cultured for 48 h. Then, CCK8 reagent was added for one hour incubation at 37 °C with 5% of CO2. Absorbance was measured using a microplate spectrophotometer (Thermo) at 450 nm. The ratio of cell viability of control was taken as 100%. […] Then IC50 of the compounds were investigated using the prism statistical software.

A549 = assay: CCK8 cell viability assay, A549; assay type: cell-based, Human; settings: for IC50: A549, 48 h, CCK8, mean ± SE
Experimental: as §1

[1] = system: HRM (Human Renal Mesangial) cell line; assay: CCK8 cell viability assay, HRM normal cells (toxicity control); assay type: cell-based; settings: HRM normal human cells, 48 h, CCK8, mean ± SE
Experimental: Based on these preliminary results, compounds 9c, 9e, 9f, 9i, 9k, 9 L, 9p, 9q, 9t, 9u, 9v, 9w, 10c, 10e which were effective to most of the cell lines were chosen for the measurement of the half-maximal inhibitory concentration (IC50). […] HRM (Human Renal Mesangial) cell line was used as a control to study the toxicity of these compounds against normal human cells.
CCK8 assay was used to measure cell viability. Cells with a density of 1 × 10^4 cells/well were seeded on the 96-well plates. After adhesion, cells were treated with different diluted compounds or vehicle control DMSO and continue cultured for 48 h. Then, CCK8 reagent was added for one hour incubation at 37 °C with 5% of CO2. Absorbance was measured using a microplate spectrophotometer (Thermo) at 450 nm. The ratio of cell viability of control was taken as 100%. […] Then IC50 of the compounds were investigated using the prism statistical software.

PC-9 = assay: CCK8 cell viability assay, PC-9; assay type: cell-based, Human; settings: for IC50: PC9, 48 h, CCK8, mean ± SE
Experimental: as §1

[2] = set-up: method as in PMID 35111871; settings: preclinical study, dose 27 times greater than the clinical dose; cited from earlier work
[3] = H460, 20 µM, 48 h, CCK8, control = 100%
[4] = A549, 20 µM, 48 h, CCK8, control = 100%
[5] = PC9, 20 µM, 48 h, CCK8, control = 100%

| IC50 (H460) | IC50 (A549) | IC50 (PC-9) | SMILES | Cell viability (100%) (H460; [3]) | Cell viability (100%) (A549; [4]) | IC50 [1] | Cell viability (100%) (PC-9; [5]) | fertility and teratogenic toxicity [2] | viability at 20 µM (H460; Homo sapiens, NCI-H460, H460, 20 µM, 48 h, CCK8, control = 100%) | viability at 20 µM (A549; Homo sapiens, A549, 20 µM, 48 h, CCK8, control = 100%) | viability at 20 µM (PC-9; Homo sapiens, PC-9, PC9, 20 µM, 48 h, CCK8, control = 100%) |
| --- | --- | --- | --- | --- | --- | --- | --- | --- | --- | --- | --- |
| 14.7 ± 2.83 µM | 33.7 ± 0.68 µM | 9.94 ± 0.36 µM | COc1c2n(cc(C(=O)Nc3cccc(-c4cn(-c5ccccc5I)nn4)c3)c1=O)C[C@@H]1OCC[C@@H](C)N1C2=O [Compound 9w] | 30.63% | 57.94% | > 50 µM | 55.21% | – | – | – | – |
| 15.4 ± 1.38 µM | > 50 µM | 12.1 ± 0.46 µM | COc1c2n(cc(C(=O)Nc3cccc(-c4cn(Cc5ccccc5Br)nn4)c3)c1=O)C[C@@H]1OCC[C@@H](C)N1C2=O [Compound 10c] | 41.79% | 68.05% | > 50 µM | 50.54% | – | – | – | – |
| 9.44 ± 1.53 µM | > 50 µM | 10.1 ± 0.71 µM | COc1c2n(cc(C(=O)Nc3cccc(-c4cn(Cc5cccc(Br)c5)nn4)c3)c1=O)C[C@@H]1OCC[C@@H](C)N1C2=O [Compound 10e] | 28.88% | 96.13% | > 50 µM | 49.85% | – | – | – | – |
| – | – | – | C[C@@H]1CCO[C@H]2Cn3cc(C(=O)NCc4ccc(F)cc4F)c(=O)c(O)c3C(=O)N12 [DTG, Dolutegravir] | – | – | – | – | no obvious fertility toxicity or teratogenic toxicity | 27.2% | 109% | 91.7% |
